Data on three compounds can be found in patent US11208412B2 (DAEGU-GYEONGBUK MEDICAL INNOVATION FOUNDATION, priority 2017, dated 2021).

Experiment in all cases: Kinase selectivity, DiscoverX scanMAX Kinase assay panel (% control)
Common to all, as to assay type: binding

Experiment [1] has as its target T1, kinases of the scanMAX Kinase assay panel (Homo sapiens, UniProt O94768).
T1 construct: purchased DiscoverX Co. (contract measurement) scanMAX Kinase assay panel
T1 sequence (O94768 1-372): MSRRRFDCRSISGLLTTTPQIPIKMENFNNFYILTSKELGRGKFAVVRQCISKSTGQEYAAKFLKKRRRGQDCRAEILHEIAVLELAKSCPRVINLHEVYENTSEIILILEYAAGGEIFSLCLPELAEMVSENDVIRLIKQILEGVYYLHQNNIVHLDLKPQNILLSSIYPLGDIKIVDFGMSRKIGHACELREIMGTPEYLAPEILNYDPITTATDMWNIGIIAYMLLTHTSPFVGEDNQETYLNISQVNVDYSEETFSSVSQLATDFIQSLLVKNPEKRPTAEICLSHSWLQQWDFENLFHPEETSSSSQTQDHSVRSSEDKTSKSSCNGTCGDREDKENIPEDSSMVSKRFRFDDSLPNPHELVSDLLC
The settings on record: DRAK2; 1 uM. The gist of the method:
(§1)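 Percent of control computed as (compound − positive control)/(negative control − positive control) × 100, DMSO defining 100% and positive control 0%. Each panel kinase exposed to 1 uM compound; values under 35% taken to mean the compound acts on that kinase.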

Experiment [2] concerns the target T2, kinases of the scanMAX Kinase assay panel (Homo sapiens, UniProt P00519).
T2 construct: purchased DiscoverX Co. (contract measurement) scanMAX Kinase assay panel
To be noted: 1 uM. Summed up:
as §1

For experiment [3], the target named is T3, kinases of the scanMAX Kinase assay panel (Homo sapiens, UniProt P10721).
T3 construct: purchased DiscoverX Co. (contract measurement) scanMAX Kinase assay panel
T3 sequence (P10721 26-976): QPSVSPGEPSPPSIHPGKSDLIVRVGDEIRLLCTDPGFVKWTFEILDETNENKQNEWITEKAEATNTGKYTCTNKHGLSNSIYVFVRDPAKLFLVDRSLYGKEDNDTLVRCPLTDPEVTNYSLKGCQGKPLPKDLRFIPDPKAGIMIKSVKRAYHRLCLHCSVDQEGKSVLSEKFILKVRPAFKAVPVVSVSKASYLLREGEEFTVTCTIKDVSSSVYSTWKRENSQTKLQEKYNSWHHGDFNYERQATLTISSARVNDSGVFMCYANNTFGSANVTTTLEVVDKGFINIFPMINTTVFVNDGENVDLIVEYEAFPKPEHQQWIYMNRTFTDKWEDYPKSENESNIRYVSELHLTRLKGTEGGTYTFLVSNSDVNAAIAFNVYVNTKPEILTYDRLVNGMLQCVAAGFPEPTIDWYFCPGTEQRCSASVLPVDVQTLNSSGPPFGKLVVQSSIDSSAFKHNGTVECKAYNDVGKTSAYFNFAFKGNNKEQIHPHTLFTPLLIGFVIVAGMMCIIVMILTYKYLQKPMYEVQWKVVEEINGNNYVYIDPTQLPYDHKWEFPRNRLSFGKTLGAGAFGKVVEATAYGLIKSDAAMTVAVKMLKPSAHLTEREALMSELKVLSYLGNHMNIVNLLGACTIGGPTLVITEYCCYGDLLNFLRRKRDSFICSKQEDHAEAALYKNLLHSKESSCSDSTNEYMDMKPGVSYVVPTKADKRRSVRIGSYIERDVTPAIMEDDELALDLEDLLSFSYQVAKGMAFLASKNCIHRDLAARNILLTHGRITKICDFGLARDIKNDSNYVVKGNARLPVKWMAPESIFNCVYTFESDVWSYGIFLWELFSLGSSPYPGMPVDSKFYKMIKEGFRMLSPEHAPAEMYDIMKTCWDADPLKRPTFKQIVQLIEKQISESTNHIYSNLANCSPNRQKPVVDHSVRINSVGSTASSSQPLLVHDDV
To be noted: 1 uM. Summed up: as §1

The target in experiment [4] is T4, kinases of the scanMAX Kinase assay panel (Homo sapiens, UniProt P14616).
T4 construct: purchased DiscoverX Co. (contract measurement) scanMAX Kinase assay panel
To be noted: INSRR; 1 uM. The gist of the method: as §1

Experiment [5] addresses T5, kinases of the scanMAX Kinase assay panel (Homo sapiens, UniProt P16591).
T5 construct: purchased DiscoverX Co. (contract measurement) scanMAX Kinase assay panel
The settings on record: FER; 1 uM. Summed up: as §1

Experiment [6] concerns the target T6, kinases of the scanMAX Kinase assay panel (Homo sapiens, UniProt P49674).
T6 construct: purchased DiscoverX Co. (contract measurement) scanMAX Kinase assay panel
To be noted: CSNK1E; 1 uM. Summed up:
as §1

Experiment [7] addresses T7, kinases of the scanMAX Kinase assay panel (Homo sapiens, UniProt P68400).
T7 construct: purchased DiscoverX Co. (contract measurement) scanMAX Kinase assay panel
To be noted: CSNK2A1; 1 uM. The gist of the method: as §1

The target in experiment [8] is T8, kinases of the scanMAX Kinase assay panel (Homo sapiens, UniProt P80192).
T8 construct: purchased DiscoverX Co. (contract measurement) scanMAX Kinase assay panel
T8 sequence (P80192 whole entry): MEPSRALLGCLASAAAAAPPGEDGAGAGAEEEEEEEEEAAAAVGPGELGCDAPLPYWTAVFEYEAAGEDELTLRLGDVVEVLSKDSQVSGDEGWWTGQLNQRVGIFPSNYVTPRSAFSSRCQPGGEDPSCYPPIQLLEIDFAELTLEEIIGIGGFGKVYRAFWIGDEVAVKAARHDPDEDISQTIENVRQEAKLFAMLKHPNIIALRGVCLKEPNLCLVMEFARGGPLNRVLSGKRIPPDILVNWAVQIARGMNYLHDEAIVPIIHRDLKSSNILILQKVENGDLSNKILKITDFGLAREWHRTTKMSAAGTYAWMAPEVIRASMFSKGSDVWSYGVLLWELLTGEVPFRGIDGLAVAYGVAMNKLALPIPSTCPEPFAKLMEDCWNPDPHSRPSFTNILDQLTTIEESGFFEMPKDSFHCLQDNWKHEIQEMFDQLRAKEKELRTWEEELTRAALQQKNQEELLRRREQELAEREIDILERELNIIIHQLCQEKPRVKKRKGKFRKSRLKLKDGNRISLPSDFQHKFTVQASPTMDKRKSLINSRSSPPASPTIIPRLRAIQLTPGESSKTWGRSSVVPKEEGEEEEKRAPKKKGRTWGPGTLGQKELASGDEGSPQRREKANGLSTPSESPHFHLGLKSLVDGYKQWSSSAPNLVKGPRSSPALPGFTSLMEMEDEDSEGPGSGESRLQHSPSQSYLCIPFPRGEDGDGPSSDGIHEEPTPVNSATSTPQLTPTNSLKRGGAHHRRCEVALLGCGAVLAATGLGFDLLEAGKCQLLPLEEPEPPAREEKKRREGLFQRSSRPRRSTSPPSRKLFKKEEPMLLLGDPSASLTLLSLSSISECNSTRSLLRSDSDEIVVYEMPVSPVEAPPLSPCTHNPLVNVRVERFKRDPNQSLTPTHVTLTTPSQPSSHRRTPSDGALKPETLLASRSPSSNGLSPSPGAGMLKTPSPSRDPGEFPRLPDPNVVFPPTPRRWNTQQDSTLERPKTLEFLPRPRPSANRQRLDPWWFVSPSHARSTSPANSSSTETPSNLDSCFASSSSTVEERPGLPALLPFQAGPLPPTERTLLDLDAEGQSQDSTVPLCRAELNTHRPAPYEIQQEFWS
To be noted: MLK1; 1 uM. Summed up:
as §1

The target in experiment [9] is T9, kinases of the scanMAX Kinase assay panel (Homo sapiens, UniProt Q00532).
T9 construct: purchased DiscoverX Co. (contract measurement) scanMAX Kinase assay panel
T9 sequence (Q00532 whole entry): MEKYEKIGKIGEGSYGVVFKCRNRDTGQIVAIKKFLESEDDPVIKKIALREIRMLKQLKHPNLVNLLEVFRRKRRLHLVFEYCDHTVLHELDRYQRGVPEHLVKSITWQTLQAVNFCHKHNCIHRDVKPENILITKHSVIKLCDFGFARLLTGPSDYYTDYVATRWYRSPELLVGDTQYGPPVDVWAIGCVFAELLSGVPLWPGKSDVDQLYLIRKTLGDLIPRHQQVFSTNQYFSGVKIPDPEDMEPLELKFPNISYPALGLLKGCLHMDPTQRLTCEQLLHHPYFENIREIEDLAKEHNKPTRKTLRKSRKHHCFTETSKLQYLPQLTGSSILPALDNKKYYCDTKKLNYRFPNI
The settings on record: CDKL1; 1 uM. Summed up:
as §1

For experiment [10], the target named is T10, kinases of the scanMAX Kinase assay panel (Homo sapiens, UniProt Q15831).
T10 construct: purchased DiscoverX Co. (contract measurement) scanMAX Kinase assay panel
T10 sequence (Q15831 1-433): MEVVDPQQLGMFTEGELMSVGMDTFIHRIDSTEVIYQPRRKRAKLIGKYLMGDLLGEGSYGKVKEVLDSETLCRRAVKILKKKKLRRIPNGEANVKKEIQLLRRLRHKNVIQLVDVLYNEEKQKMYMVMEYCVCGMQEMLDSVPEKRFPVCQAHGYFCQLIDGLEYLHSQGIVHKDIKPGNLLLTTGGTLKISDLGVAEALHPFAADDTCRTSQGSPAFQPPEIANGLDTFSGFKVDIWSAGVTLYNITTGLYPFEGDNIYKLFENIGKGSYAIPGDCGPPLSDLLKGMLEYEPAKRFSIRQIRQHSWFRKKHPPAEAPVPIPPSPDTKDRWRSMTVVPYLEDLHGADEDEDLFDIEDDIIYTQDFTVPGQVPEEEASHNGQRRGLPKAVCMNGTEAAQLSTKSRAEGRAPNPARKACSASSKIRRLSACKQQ
The settings on record: LKB1; 1 uM. The gist of the method:
as §1

For experiment [11], the target named is T11, kinases of the scanMAX Kinase assay panel (Homo sapiens, UniProt Q8N5S9).
T11 construct: purchased DiscoverX Co. (contract measurement) scanMAX Kinase assay panel
T11 sequence (Q8N5S9 whole entry): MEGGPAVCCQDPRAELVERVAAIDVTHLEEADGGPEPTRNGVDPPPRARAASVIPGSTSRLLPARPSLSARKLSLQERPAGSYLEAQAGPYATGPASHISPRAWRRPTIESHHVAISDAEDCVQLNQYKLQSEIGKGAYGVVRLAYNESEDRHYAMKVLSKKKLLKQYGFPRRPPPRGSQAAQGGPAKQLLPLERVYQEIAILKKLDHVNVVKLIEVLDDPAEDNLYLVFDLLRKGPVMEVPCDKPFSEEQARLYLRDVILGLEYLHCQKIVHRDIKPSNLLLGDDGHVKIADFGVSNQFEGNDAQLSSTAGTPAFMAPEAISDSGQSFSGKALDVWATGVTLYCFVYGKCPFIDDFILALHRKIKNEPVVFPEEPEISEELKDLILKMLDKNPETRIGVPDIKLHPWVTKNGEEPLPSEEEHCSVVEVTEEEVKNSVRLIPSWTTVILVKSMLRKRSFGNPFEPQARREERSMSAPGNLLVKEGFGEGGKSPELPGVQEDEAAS
To be noted: CAMKK1; 1 uM. The gist of the method:
as §1

Experiment [12] addresses T12, kinases of the scanMAX Kinase assay panel (Homo sapiens, UniProt Q9BRS2).
T12 construct: purchased DiscoverX Co. (contract measurement) scanMAX Kinase assay panel
T12 sequence (Q9BRS2 1-568): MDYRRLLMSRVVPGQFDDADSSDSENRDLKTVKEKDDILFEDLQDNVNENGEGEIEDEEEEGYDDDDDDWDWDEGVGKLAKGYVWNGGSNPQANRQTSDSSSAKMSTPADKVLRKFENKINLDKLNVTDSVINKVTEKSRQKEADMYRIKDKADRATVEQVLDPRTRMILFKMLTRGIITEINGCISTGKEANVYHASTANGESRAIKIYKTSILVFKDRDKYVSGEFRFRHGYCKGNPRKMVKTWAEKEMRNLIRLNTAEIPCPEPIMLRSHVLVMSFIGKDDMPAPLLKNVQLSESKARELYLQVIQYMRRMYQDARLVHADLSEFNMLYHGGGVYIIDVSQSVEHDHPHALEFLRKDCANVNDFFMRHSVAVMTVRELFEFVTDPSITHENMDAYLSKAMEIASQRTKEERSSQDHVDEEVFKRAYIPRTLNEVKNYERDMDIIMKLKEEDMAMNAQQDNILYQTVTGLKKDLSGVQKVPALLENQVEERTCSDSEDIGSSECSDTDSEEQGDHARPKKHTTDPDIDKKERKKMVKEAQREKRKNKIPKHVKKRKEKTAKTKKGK
To be noted: kinase RIOK1; 1 uM in DMSO. The gist of the method:
as §1

T6 sequence (P49674 whole entry): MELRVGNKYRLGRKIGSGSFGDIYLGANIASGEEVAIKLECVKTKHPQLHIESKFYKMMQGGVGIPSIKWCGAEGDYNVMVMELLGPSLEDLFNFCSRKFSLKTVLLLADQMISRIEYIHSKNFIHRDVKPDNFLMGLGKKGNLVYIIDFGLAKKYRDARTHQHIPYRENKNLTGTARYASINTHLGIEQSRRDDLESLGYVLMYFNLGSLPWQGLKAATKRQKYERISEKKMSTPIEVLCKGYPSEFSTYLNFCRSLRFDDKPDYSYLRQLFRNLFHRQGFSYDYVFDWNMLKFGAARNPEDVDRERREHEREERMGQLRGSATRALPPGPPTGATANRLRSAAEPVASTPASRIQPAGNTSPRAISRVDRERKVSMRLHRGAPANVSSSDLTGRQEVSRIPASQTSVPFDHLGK
T7 sequence (P68400 whole entry): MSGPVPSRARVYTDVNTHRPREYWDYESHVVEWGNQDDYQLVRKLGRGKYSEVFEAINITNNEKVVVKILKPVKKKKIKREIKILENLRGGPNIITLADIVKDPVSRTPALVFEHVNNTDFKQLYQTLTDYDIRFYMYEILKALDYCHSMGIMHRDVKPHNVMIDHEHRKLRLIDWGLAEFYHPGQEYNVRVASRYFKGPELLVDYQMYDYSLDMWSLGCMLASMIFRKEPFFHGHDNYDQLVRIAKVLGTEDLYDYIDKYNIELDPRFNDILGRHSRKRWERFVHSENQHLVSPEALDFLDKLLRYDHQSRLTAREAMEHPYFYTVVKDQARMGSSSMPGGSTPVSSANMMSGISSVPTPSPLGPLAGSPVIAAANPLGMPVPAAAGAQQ
T2 sequence (P00519 whole entry): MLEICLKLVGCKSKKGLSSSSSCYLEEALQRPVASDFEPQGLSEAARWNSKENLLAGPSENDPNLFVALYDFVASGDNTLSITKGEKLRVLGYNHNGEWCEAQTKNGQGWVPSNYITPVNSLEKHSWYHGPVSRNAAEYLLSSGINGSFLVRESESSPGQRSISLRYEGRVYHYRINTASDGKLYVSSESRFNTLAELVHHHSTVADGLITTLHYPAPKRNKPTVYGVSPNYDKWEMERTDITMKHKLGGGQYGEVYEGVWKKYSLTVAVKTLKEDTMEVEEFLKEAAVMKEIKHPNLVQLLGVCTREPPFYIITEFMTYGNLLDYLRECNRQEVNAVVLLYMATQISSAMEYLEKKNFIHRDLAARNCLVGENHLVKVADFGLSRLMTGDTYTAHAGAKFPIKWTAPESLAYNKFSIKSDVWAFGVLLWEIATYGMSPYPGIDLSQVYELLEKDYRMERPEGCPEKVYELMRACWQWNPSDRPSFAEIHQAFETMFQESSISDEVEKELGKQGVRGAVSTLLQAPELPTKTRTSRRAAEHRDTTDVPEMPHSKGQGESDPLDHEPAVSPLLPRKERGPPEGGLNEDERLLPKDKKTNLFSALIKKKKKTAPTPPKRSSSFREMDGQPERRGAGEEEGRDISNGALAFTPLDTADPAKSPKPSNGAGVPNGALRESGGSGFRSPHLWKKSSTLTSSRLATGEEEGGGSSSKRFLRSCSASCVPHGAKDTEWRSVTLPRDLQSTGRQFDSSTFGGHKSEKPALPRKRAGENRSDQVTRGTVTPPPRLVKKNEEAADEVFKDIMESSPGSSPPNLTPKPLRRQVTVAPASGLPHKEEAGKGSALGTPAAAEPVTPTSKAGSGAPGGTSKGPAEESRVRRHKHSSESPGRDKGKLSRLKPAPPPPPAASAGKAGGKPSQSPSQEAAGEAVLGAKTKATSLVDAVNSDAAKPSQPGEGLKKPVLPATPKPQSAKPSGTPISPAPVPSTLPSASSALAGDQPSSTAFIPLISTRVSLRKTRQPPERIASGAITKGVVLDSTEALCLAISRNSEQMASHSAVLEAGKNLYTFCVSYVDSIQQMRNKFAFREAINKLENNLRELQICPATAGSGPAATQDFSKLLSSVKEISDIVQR

`CC1(Nc2nc(Nc3cnn([C@H]4CCN(C5COC5)C[C@@H]4F)c3Cl)nc3[nH]cc(C#N)c23)CC1` [Example 52, 2-((5-chloro-1-((3S,4S)-3-fluoro-1-(oxetane-3-yl)piperidine-4-yl)-1H-pyrazole-4-yl)amino)((1-methylcyclopropyl)amino)-7H-pyrrolo[2,3-d]pyrimidine-5-carbonitrile]: the remaining binding at 1 µM amounted to 1.2% in experiment [1]; 6.4% in experiment [2] (ABL1-nonphosphorylated); 1.8% in [2] (ABL1-phosphorylated); 0.1% in [3] (KIT-autoinhibited); 0.15% in experiment [3] (KIT); 6.5% in [4]. Besides, the remaining binding at 1 µM came out at 0.25% in [5]; 0.15% in [6]; 24% in experiment [7]; 0.5% in [8]; 46% in experiment [9]; 31% in [10]. The remaining binding at 1 µM in experiment [11] stood at 21%; in experiment [12], 0.7%.

Regarding `CCNc1nc(Nc2ccc(C(=O)N3CCC(N4CCOCC4)CC3)cc2OC)nc2[nH]cc(C(F)(F)F)c12` [Example 104, (4-((4-(ethylamino)-5-(trifluoromethyl)-7H-pyrrolo[2,3-d]pyrimidine-2-yl)amino)-3-methoxyphenyl)(4-morpholinopiperidine-1-yl)methanone], the remaining binding at 1 µM in [1] came out at 15%; in experiment [2] (ABL1-nonphosphorylated) it was 91%; in experiment [2] (ABL1-phosphorylated), 63%; in experiment [3] (KIT-autoinhibited) it was 74%; in experiment [3] (KIT), 56%; in [4], 3.2%. The remaining binding at 1 µM in experiment [5] is 3%; in experiment [6] it was 4.2%; in experiment [7], 73%; in [8] it was 66%; in [9], 88%; in experiment [10] it was 87%. In addition, the results for the remaining binding at 1 µM in experiment [11] and in experiment [12] were 14% and 100%, respectively.

As to `CNc1nc(Nc2ccc(C(=O)N3CCOCC3)cc2OC)nc2[nH]cc(C#N)c12` [Example 1, 2-((2-methoxy-4-(morpholine-4-carbonyl)phenyl)amino)-4-(methylamino)-7H-pyrrolo[2,3-d]pyrimidine-5-carbonitrile], the remaining binding at 1 µM in experiment [1] came out at 13%; in experiment [2] (ABL1-nonphosphorylated), 92%; in experiment [2] (ABL1-phosphorylated) it was 88%; in [3] (KIT-autoinhibited), 59%; in experiment [3] (KIT), 48%; in experiment [4] it was 61%. In addition, the remaining binding at 1 µM turned out to be 15% in [5]; 12% in [6]; 59% in [7]; 81% in experiment [8]; 89% in [9]; 91% in experiment [10]. Moreover, the remaining binding at 1 µM in [11] turned out to be 81%; in [12] it was 100%.
